{"source": "ChEMBL document CHEMBL5653631", "about": "“A Potent and Selective ULK1 Inhibitor Suppresses Autophagy and Sensitizes Cancer Cells to Nutrient Stress” (iScience, 2018)", "key": {"[1]": {"target": "T1, Inhibitor of nuclear factor kappa-B kinase subunit epsilon (Homo sapiens) (UniProt Q14164)", "T1 sequence (whole entry)": "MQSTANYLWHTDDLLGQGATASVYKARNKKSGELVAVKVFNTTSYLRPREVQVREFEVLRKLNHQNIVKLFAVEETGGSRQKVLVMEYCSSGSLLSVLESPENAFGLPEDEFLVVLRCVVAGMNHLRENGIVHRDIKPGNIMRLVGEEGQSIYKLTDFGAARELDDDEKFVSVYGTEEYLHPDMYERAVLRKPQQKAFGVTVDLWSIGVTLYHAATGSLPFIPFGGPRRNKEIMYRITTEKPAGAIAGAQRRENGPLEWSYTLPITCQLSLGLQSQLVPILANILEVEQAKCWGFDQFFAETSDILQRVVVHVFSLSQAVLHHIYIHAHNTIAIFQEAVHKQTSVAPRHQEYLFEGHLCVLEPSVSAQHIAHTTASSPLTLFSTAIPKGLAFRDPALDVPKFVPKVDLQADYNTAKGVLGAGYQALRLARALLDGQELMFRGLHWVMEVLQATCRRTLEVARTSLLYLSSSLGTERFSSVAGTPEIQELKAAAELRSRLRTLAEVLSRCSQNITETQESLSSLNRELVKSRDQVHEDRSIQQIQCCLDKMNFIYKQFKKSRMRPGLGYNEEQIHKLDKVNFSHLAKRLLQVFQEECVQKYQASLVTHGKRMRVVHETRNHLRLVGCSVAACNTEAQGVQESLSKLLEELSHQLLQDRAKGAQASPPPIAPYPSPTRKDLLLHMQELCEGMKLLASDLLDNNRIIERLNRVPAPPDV", "experiment": "Inhibition of human recombinant IKKe at 500 nM related to control ULK1"}, "[2]": {"target": "Death-associated protein kinase 1 (Homo sapiens) (UniProt P53355)", "sequence (P53355 whole entry, looked up)": "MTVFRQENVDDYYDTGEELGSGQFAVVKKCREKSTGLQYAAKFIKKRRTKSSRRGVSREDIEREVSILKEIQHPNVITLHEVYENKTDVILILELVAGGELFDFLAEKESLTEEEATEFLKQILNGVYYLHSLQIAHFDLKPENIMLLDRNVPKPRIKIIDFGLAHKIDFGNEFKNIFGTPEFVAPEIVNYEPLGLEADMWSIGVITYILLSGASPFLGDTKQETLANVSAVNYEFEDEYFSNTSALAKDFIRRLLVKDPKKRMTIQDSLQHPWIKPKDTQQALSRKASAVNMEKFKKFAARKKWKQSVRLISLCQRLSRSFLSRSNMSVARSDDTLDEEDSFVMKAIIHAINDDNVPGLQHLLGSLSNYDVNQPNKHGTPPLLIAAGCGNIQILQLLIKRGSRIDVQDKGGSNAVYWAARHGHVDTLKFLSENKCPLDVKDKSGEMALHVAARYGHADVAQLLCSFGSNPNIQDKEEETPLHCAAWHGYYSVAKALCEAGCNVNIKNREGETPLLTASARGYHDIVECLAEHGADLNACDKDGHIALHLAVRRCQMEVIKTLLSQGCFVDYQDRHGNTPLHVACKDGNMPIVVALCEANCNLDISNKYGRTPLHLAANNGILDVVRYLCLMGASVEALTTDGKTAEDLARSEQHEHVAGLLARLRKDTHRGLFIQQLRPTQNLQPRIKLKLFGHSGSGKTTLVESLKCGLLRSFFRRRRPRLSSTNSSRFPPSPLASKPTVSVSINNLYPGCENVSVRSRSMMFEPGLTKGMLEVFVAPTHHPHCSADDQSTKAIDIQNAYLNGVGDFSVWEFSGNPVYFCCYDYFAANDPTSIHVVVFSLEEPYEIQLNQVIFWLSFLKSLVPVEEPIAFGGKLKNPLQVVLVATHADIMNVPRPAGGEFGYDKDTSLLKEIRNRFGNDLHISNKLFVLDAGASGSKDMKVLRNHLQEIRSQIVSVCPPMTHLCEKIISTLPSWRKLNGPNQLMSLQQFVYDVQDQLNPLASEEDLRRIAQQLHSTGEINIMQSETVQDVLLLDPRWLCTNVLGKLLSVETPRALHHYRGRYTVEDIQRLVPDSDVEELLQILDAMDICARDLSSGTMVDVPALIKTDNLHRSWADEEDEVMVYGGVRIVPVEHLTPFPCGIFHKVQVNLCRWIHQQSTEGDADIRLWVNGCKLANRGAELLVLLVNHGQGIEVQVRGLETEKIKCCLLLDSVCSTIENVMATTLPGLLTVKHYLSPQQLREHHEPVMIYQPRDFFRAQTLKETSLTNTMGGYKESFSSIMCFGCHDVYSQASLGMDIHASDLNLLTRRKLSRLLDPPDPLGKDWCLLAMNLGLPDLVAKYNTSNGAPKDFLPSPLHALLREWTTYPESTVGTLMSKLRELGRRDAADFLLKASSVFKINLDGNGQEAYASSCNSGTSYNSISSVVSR", "experiment": "Inhibition of human recombinant DAPK1 at 500 nM in presence of ATP by radiometric assay relative to control"}, "[3]": {"target": "Serine/threonine-protein kinase PAK 4 (Homo sapiens) (UniProt O96013)", "sequence (O96013 whole entry, looked up)": "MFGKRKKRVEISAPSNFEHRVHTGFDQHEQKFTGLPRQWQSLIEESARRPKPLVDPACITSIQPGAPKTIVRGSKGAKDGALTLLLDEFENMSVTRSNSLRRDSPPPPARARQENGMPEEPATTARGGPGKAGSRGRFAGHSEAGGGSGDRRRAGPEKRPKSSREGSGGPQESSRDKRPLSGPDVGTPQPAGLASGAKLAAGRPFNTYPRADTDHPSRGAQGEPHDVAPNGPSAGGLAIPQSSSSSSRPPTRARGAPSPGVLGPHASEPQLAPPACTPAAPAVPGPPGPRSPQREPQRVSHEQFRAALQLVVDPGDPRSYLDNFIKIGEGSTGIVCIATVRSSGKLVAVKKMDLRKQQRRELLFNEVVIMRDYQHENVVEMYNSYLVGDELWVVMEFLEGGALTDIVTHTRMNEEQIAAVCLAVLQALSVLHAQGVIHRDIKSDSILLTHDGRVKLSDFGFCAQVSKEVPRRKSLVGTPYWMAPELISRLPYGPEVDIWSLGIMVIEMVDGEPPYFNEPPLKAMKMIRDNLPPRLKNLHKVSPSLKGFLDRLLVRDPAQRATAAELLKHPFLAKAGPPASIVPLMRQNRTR", "experiment": "Inhibition of human recombinant PAK4 at 500 nM in presence of ATP by radiometric assay relative to control"}, "[4]": {"target": "Tyrosine-protein kinase JAK2 (Homo sapiens) (UniProt O60674)", "experiment": "Inhibition of human recombinant JAK2 at 500 nM related to control ULK1"}, "[5]": {"target": "Ephrin type-A receptor 4 (Homo sapiens) (UniProt P54764)", "experiment": "Inhibition of human recombinant EphA4 at 500 nM in presence of ATP by radiometric assay relative to control"}, "[6]": {"target": "Dual specificity mitogen-activated protein kinase kinase 2 (Homo sapiens) (UniProt P36507)", "sequence (P36507 whole entry)": "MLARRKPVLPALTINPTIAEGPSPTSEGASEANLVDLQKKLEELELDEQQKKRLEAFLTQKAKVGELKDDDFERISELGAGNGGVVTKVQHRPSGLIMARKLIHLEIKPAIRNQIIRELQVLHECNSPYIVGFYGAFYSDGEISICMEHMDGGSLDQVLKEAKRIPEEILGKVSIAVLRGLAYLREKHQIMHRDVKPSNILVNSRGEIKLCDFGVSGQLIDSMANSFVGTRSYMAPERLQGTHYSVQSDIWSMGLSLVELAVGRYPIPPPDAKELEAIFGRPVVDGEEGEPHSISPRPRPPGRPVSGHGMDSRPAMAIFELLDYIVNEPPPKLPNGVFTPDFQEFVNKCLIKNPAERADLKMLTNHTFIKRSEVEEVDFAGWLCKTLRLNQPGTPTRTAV", "experiment": "Inhibition of human recombinant MAP2K2 at 15 nM related to control ULK1"}, "[7]": {"target": "Ephrin type-A receptor 2 (Homo sapiens) (UniProt P29317)", "experiment": "Inhibition of human recombinant EphA2 at 15 nM related to control ULK1"}, "[8]": {"target": "T2, Ephrin type-B receptor 2 (Homo sapiens) (UniProt P29323)", "T2 sequence (whole entry)": "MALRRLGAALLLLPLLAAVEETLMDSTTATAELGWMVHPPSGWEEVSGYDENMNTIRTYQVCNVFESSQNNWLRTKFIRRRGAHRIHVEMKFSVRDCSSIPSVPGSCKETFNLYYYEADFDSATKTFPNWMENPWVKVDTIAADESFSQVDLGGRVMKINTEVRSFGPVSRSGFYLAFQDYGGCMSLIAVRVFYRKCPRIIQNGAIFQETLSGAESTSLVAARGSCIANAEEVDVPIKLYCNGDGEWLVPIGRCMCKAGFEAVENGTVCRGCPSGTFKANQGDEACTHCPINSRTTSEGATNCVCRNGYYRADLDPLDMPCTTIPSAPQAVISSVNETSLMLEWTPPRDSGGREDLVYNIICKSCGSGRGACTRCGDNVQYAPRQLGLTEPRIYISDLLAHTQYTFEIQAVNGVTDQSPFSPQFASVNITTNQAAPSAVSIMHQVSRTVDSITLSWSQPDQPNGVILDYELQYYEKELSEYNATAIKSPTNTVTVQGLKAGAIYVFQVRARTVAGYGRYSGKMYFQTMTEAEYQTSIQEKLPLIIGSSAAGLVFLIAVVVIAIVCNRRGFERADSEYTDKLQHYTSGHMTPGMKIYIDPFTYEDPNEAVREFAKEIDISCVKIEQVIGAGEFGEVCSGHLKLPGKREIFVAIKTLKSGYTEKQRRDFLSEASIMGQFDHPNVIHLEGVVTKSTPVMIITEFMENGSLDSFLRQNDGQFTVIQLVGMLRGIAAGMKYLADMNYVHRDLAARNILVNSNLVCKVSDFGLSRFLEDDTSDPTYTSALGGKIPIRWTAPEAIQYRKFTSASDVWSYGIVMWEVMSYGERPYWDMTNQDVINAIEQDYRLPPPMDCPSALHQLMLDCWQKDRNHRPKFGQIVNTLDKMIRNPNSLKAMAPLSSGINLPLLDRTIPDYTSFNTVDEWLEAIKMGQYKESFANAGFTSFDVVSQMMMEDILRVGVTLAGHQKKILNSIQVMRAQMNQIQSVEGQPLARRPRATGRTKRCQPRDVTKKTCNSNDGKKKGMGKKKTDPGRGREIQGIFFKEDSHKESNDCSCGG", "experiment": "Inhibition of human recombinant EphB2 at 15 nM in presence of ATP by radiometric assay relative to control"}, "[9]": {"target": "Misshapen-like kinase 1 (Homo sapiens) (UniProt Q8N4C8)", "sequence (Q8N4C8 whole entry, looked up)": "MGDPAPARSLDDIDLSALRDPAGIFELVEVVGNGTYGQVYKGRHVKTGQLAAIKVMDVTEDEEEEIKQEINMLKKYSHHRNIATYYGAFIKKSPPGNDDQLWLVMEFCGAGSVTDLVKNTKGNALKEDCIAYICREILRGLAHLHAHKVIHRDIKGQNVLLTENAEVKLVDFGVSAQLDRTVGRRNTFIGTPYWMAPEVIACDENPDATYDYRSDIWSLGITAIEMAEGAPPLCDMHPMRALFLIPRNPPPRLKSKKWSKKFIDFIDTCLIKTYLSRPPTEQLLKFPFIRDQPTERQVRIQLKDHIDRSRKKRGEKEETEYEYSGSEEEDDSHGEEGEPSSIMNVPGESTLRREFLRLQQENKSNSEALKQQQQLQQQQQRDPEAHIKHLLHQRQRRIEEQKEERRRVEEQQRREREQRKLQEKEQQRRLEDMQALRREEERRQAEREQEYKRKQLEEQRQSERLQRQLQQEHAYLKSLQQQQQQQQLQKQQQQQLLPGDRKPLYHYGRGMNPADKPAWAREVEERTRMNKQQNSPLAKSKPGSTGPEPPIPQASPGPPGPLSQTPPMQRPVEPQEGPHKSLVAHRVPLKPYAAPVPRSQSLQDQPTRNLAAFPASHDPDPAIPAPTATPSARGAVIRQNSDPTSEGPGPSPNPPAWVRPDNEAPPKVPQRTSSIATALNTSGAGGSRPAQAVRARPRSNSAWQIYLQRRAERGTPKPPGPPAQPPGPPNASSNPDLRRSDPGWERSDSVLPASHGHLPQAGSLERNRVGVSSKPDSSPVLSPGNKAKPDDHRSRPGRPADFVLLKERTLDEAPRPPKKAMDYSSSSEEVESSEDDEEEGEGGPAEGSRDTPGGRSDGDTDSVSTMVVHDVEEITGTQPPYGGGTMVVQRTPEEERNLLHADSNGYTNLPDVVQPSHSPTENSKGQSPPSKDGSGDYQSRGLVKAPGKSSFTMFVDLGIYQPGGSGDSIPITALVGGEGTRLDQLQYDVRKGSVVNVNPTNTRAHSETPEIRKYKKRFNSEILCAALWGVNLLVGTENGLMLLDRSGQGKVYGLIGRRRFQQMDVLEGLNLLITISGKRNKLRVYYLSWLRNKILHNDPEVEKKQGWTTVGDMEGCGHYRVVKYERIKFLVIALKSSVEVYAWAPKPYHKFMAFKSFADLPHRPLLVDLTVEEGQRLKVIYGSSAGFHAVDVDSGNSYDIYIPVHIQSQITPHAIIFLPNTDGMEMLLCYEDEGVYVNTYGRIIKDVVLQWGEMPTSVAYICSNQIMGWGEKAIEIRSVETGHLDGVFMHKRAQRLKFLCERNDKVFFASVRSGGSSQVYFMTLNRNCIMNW", "experiment": "Inhibition of human recombinant MINK at 15 nM in presence of ATP by radiometric assay relative to control"}, "[10]": {"target": "Protein kinase C alpha type (Homo sapiens) (UniProt P17252)", "experiment": "Inhibition of human recombinant PKCa at 15 nM in presence of ATP by radiometric assay relative to control"}, "[11]": {"target": "Mast/stem cell growth factor receptor Kit (Homo sapiens) (UniProt P10721)", "experiment": "Inhibition of human recombinant KIT at 40 nM related to control ULK1"}, "[12]": {"target": "Serine/threonine-protein kinase PLK1 (Homo sapiens) (UniProt P53350)", "sequence (P53350 whole entry)": "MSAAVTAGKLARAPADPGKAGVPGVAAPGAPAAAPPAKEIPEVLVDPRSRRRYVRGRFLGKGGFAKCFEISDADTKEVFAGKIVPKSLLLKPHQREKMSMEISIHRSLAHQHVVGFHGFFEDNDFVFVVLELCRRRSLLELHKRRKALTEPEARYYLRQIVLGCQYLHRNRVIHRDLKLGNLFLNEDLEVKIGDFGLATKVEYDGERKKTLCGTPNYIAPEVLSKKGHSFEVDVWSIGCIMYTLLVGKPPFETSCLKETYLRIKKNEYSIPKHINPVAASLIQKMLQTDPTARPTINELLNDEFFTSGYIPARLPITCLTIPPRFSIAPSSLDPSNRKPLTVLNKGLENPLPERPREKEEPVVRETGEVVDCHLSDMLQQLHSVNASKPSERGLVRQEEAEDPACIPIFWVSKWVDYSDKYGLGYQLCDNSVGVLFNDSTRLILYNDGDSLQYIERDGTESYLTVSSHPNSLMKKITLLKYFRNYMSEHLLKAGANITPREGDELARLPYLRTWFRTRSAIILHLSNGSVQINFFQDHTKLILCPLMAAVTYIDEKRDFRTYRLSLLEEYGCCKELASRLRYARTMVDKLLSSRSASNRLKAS", "experiment": "Inhibition of human recombinant PLK1 at 40 nM related to control ULK1"}}, "data": [{"smiles": "CNC(=O)c1ccccc1Oc1nc(Nc2cc(OC)c(OC)c(OC)c2)ncc1Br", "values": [{"measurement": "fold change (FC)", "setting": "[1]", "value": 0}, {"measurement": "inhibition", "setting": "[2]", "value": 0, "unit": "%"}, {"measurement": "inhibition", "setting": "[3]", "value": 41, "unit": "%"}, {"measurement": "fold change (FC)", "setting": "[4]", "value": 1.05}, {"measurement": "inhibition", "setting": "[5]", "value": 15, "unit": "%"}]}, {"smiles": "CC(C)[C@H](NC(=O)c1cc(-c2cnn3cc(-c4ccc(OCCN5CCCCC5)cc4)cnc23)cs1)C(F)(F)F", "values": [{"measurement": "fold change (FC)", "setting": "[6]", "value": 0}, {"measurement": "fold change (FC)", "setting": "[7]", "value": 0}, {"measurement": "inhibition", "setting": "[8]", "value": 7, "unit": "%"}, {"measurement": "inhibition", "setting": "[9]", "value": 4, "unit": "%"}, {"measurement": "inhibition", "setting": "[10]", "value": 7, "unit": "%"}]}, {"smiles": "O=C(N[C@@H](C1CC1)C(F)(F)F)c1cc(-c2cnn3cc(-c4ccc(F)cc4)cnc23)cs1", "values": [{"measurement": "fold change (FC)", "setting": "[11]", "value": 0}, {"measurement": "fold change (FC)", "setting": "[12]", "value": 0}]}]}
